Reference: article PMC6576746, “Rational discovery of dual-indication multi-target PDE/Kinase inhibitor for precision anti-cancer therapy using structural systems pharmacology” (PLoS Computational Biology, 2019)

What was measured:
GAK = molecular target: T1, GAK (Homo sapiens, UniProt O14976); assay: KinomeScan competition binding assay; details: 10 μM levosimendan
T1 construct: DiscoverX KinomeScan panel kinase

KIT = KIT (Homo sapiens, UniProt P10721); assay: KinomeScan competition binding assay; set-up: DiscoverX KinomeScan panel kinase; details: 10 μM levosimendan
Sequence of KIT (P10721 26-976): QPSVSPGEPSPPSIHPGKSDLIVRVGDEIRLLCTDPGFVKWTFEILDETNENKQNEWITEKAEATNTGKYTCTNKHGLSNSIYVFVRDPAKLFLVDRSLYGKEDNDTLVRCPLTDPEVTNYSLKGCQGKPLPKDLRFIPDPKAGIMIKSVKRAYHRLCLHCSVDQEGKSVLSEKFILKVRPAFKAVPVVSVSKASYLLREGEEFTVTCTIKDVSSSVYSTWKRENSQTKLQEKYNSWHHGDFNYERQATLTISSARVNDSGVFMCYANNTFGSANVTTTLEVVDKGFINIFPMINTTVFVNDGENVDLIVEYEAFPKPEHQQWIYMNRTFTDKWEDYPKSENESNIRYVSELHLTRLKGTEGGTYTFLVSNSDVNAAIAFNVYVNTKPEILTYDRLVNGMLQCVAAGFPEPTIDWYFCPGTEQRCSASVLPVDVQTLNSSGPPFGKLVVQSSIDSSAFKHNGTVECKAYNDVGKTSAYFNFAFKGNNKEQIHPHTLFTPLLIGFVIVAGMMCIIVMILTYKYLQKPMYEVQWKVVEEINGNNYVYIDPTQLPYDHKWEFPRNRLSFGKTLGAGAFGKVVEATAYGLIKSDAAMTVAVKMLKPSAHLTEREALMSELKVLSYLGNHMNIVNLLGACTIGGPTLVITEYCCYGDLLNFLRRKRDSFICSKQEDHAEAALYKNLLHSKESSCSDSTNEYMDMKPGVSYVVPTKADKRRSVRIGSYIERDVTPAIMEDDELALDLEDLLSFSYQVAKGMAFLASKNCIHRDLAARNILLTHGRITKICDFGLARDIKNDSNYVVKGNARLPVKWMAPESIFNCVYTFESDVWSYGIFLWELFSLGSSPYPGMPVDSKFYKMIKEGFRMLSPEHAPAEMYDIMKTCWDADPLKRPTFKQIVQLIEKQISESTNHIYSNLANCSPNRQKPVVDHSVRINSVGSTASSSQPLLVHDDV

RIOK3 = molecular target: T2, RIOK3 (Homo sapiens, UniProt O14730); assay: KinomeScan competition binding assay; set-up: DiscoverX KinomeScan panel kinase; details: 10 μM and 100 μM levosimendan
T2 sequence (O14730 1-519): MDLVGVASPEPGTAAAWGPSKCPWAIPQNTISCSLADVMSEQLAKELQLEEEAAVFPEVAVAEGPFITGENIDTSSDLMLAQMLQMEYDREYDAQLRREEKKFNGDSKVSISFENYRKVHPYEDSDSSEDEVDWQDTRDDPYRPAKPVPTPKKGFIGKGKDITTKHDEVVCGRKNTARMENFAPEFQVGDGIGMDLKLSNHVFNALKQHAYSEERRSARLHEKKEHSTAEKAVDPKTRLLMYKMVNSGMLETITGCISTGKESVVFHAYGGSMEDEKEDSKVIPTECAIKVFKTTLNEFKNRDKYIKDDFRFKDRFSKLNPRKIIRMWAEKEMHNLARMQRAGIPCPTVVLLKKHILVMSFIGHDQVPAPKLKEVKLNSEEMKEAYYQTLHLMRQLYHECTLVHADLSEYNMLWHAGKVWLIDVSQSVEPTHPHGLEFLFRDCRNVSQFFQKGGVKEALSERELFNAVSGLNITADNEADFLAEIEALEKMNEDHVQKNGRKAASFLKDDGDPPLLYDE

[1] = molecular target: T3, RIOK1 (serine/threonine-protein kinase RIOK1) (Homo sapiens, UniProt Q9BRS2); assay: KinomeScan competition binding assay, dose-response; details: DiscoverX; Hill equation fit
T3 construct: DiscoverX KinomeScan panel kinase
T3 sequence (Q9BRS2 whole entry): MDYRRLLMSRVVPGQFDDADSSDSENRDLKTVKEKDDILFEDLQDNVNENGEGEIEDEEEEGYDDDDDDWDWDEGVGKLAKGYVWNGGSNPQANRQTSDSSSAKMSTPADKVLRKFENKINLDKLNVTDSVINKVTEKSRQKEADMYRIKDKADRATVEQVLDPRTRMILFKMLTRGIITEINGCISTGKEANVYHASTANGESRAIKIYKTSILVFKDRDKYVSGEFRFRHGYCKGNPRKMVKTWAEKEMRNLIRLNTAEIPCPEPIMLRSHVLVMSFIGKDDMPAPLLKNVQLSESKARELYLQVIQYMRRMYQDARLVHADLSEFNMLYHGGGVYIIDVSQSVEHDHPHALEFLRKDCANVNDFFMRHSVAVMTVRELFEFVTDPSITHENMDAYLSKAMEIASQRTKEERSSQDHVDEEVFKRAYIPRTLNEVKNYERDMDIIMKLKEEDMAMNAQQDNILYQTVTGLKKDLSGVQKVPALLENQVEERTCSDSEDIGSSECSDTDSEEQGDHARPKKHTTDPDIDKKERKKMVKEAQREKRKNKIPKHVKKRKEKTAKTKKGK

FLT3 = molecular target: T4, FLT3 (Homo sapiens, UniProt P36888); assay: KinomeScan competition binding assay; details: 10 μM levosimendan
T4 construct: DiscoverX KinomeScan panel kinase
T4 sequence (P36888 27-993): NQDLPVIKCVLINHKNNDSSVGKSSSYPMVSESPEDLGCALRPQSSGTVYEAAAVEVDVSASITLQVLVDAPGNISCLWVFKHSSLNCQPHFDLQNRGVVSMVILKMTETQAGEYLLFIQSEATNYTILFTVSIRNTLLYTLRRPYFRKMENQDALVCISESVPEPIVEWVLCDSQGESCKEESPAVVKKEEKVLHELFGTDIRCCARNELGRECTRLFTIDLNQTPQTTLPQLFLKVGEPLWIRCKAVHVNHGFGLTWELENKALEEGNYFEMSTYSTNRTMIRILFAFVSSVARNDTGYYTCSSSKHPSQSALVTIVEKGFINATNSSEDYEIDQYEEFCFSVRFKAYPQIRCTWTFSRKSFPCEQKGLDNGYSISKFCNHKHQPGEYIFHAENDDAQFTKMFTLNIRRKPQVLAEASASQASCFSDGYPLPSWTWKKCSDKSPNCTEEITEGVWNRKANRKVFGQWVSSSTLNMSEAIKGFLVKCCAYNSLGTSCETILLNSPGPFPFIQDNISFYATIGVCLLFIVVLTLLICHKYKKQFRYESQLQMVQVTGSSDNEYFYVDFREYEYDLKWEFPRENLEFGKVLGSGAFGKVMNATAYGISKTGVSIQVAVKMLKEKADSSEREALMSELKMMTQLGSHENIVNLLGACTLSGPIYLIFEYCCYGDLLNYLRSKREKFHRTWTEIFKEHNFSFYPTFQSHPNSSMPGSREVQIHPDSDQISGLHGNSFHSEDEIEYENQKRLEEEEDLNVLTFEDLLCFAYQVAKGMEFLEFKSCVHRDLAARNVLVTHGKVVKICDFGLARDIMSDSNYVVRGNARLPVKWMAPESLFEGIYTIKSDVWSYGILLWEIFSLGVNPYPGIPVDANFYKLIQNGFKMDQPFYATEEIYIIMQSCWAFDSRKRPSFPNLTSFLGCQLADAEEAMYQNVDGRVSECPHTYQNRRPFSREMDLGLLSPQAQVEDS

HCT-15 = assay: cells; set-up: species or system panel of human cancer cell lines; Eurofins OncoPanel proliferation; nuclei count by high-content fluorescence imaging, 10-point dose response; details: Homo sapiens, HCT-15, 72 h, cell count, 3 days
In short: (§1)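 Cells in RPMI 1640/10% FBS or special medium received compound the day after seeding, with a time-zero plate; 3-day incubation at 37°C, 5% CO2. Nuclei imaged by fluorescence microscopy; 10 half-log doses from 100 μM, 0.1% DMSO. EC50, IC50, GI50 and activity area (0–10) from curve fits.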

CHP-212 = assay: cells; set-up: species or system panel of human cancer cell lines; Eurofins OncoPanel proliferation; nuclei count by high-content fluorescence imaging, 10-point dose response; details: Homo sapiens, CHP-212, 72 h, cell count, 3 days
In short: as §1

BM-1604 = assay: cells; set-up: species or system panel of human cancer cell lines; Eurofins OncoPanel proliferation; nuclei count by high-content fluorescence imaging, 10-point dose response; details: BM-1604, 72 h, cell count, 3 days
In short: as §1

BT-549 = assay: cells; set-up: species or system panel of human cancer cell lines; Eurofins OncoPanel proliferation; nuclei count by high-content fluorescence imaging, 10-point dose response; details: Homo sapiens, BT-549, 72 h, cell count, 3 days
In short: as §1

CML-T1 = assay: cells; set-up: species or system panel of human cancer cell lines; Eurofins OncoPanel proliferation; nuclei count by high-content fluorescence imaging, 10-point dose response; details: CML-T1, 72 h, cell count, 3 days
In short: as §1

LS123 = assay: cells; set-up: species or system panel of human cancer cell lines; Eurofins OncoPanel proliferation; nuclei count by high-content fluorescence imaging, 10-point dose response; details: Homo sapiens, LS-123, 72 h, cell count, 3 days
In short: as §1

KG-1 = assay: cells; set-up: species or system panel of human cancer cell lines; Eurofins OncoPanel proliferation; nuclei count by high-content fluorescence imaging, 10-point dose response; details: Homo sapiens, KG-1, 72 h, cell count, 3 days
In short: as §1

[2] = 50% of maximum possible response

T1 sequence (O14976 2-1311): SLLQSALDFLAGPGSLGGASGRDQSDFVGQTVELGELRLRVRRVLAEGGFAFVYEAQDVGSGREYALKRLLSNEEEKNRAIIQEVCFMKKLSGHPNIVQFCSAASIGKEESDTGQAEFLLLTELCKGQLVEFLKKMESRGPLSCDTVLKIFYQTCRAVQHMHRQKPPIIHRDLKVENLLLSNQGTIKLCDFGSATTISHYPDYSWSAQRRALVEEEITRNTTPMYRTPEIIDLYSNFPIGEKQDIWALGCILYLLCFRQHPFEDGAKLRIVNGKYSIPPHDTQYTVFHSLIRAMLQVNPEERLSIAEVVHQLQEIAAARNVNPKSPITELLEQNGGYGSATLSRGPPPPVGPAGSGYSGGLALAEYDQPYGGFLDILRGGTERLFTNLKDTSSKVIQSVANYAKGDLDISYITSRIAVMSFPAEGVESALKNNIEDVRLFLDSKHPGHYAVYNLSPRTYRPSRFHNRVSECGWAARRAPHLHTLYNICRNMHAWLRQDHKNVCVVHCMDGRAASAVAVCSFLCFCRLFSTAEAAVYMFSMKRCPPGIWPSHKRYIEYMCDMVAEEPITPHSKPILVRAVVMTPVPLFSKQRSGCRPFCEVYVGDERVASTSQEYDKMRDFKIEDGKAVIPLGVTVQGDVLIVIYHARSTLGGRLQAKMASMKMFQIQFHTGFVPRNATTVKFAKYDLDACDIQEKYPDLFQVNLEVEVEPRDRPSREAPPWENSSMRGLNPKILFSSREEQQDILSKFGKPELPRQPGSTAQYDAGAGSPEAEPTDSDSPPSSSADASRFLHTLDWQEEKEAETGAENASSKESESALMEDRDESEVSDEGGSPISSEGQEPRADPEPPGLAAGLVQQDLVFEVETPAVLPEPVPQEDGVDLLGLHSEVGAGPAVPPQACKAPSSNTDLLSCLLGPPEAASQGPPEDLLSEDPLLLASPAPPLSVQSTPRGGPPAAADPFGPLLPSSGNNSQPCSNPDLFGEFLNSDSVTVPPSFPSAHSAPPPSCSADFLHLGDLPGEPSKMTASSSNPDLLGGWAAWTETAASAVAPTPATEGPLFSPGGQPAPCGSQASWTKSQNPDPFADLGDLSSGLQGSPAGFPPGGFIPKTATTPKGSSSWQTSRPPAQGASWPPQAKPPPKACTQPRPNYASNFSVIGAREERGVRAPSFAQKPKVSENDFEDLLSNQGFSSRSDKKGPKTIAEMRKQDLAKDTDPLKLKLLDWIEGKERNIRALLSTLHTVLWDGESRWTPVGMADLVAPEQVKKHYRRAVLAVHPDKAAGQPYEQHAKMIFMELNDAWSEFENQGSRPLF

percentage control at 10 μM (GAK): < 30.0%
percentage control at 10 μM (KIT): < 30.0%
Kd [1]: 0.82 µM
percentage control at 10 μM (FLT3): < 30.0%
IC50 (HCT-15; [2]): 32.1 µM
GI50 (HCT-15; corrected for time zero): 31 µM
EC50 (HCT-15; curve inflection point): 30.8 µM
IC50 (BT-549; [2]): 15.4 µM
GI50 (BT-549; corrected for time zero): 11.3 µM
EC50 (BT-549; curve inflection point): 12.7 µM
Structure (SMILES): C[C@@H]1CC(=O)NN=C1c1ccc(NN=C(C#N)C#N)cc1 [levosimendan]
percentage control (RIOK3): RIOK3, the closest homolog of RIOK1, showed the similar binding strength as RIOK1
IC50 (CHP-212; [2]): 84.9 µM
GI50 (CHP-212; corrected for time zero): 49.1 µM
EC50 (CHP-212; curve inflection point): 84.9 µM
IC50 (BM-1604; [2]): 12.6 µM
GI50 (BM-1604; corrected for time zero): 7.44 µM
EC50 (BM-1604; curve inflection point): 12.6 µM
IC50 (CML-T1; [2]): 15.7 µM
GI50 (CML-T1; corrected for time zero): 12.5 µM
EC50 (CML-T1; curve inflection point): 15.7 µM
IC50 (LS123; [2]): 53.3 µM
GI50 (LS123; corrected for time zero): 22 µM
EC50 (LS123; curve inflection point): 43.8 µM
IC50 (KG-1; [2]): 21.7 µM
GI50 (KG-1; corrected for time zero): 13.5 µM
EC50 (KG-1; curve inflection point): 19.2 µM
